Test results as given in patent publication US10774046B2, “Inhibitors for the treatment of cancer and related methods” (UNIVERSITY OF LOUISVILLE RESEARCH FOUNDATION, INC., priority 2017, dated 2020).

Experiments:
H460 cells [1] = test: proliferation, viable cell count by trypan blue exclusion; format: cell-based, human; conditions: for proliferation (cell counts relative to DMSO): H460, counts at 72 hours shown
Description: Cells were incubated in 20% trypan blue (Sigma) for 5 minutes. Cells excluding trypan blue were counted using a standard hemocytometer (Hausser Scientific) to determine total numbers of viable cells. Data are expressed as mean±SD of three experiments.
H460 non-small cell lung cancer cells were plated in 24 well plates and exposed to increasing concentrations of the indicated inhibitors of Formula IV (FBR1-02 corresponds to
DMSO was used as vehicle. After 24, 48 and 72 hours of exposure, cells were detached and viable cells were counted by Trypan blue exclusion (representative counts at 48 hours shown).
Method: H460 cells were plated in 24 well plates and exposed to increasing concentrations of FB4-31 to FB4-36 and 5MPN. DMSO was used as a vehicle. After 24, 48 and 72 hours of exposure, cells were detached, and viable cells were counted by Trypan blue exclusion (representative counts at 72 hours shown).

H460 cells [2] = test: glycolysis assay (3H2O from 5-[3H]glucose); format: cell-based, human; conditions: H460
Description: H460 cells were exposed to the indicated concentrations of MPN-2 and glycolysis production was examined. Cells growing in 6-well plates were incubated in 500 μl of complete medium containing 1 μCi of 5-[^3H]glucose per well for 60 min in 5% CO2 at 37° C. Media was collected, ^3H2O formed via glycolysis from the 5-[^3H]glucose measured and counts normalized as previously described. For example, the medium was then collected and centrifuged to pellet any suspended cells. To separate the ^3H2O formed via glycolysis from the 5-[^3H]glucose added to the medium, an evaporation technique in a sealed system was utilized. Briefly, 150 μl aliquots of medium were added to open tubes that were placed upright inside scintillation vials containing 1 ml of H2O. The scintillation vials were sealed, and the ^3H2O produced by glycolysis through enolase and released to the medium was allowed to equilibrate with the H2O in the outer vial for 48 h at 37° C. The amounts of ^3H2O that had diffused into the surrounding H2O was measured on a Tri-Carb 2910 liquid scintillation analyzer (Perkin Elmer) and compared with ^3H2O and 5-[^3H]glucose standards. Protein concentration was determined using the BCA assay and counts were normalized to protein concentration. All data are expressed as the mean±SD of three experiments. Statistical significance was assessed by the two-sample t test (independent variable).
Method: To examine glycolysis, H460 cells growing in 6-well plates were incubated in 500 μl of complete medium containing 1 μCi of 5-[^3H] glucose per well for 60 min in 5% CO2 at 37° C. The medium was then collected and centrifuged to pellet any suspended cells. To separate the ^3H2O formed via glycolysis from the 5-[^3H]glucose added to the medium, an evaporation technique in a sealed system was utilized. Briefly, 150 μl aliquots of medium were added to open tubes that were placed upright inside scintillation vials containing 1 ml of H2O. The scintillation vials were sealed, and the ^3H2O produced by glycolysis through enolase and released to the medium was allowed to equilibrate with the H2O in the outer vial for 48 h at 37° C. The amounts of ^3H2O that had diffused into the surrounding H2O was measured on a Tri-Carb 2910 liquid scintillation analyzer (Perkin Elmer) and compared with ^3H2O and 5-[^3H]glucose standards. Protein concentration was determined using the BCA assay and counts were normalized to protein concentration (previously described in CHESNEY et al. Oncotarget. 2014; 5(16):6670-6686.)

H460 cells [3] = test: F2,6BP measurement in cells (coupled enzyme reaction); format: cell-based, human; conditions: H460, effects at 2.5 μM
Description: Cells or tissues were prepared as previously described and F2,6BP content measured using a coupled enzyme reaction following a modification of the method of Van Schaftingen et al (VAN SCHAFTINGEN E et al. “A kinetic study of pyrophosphate:fructose-6-phosphate phosphotransferase from potato tubers. Application to a microassay of fructose 2,6-bisphosphate” Eur J Biochem (1982) Vol. 129, No. 1, pp. 191-195) and normalized to total cellular protein measured by the bicinchoninic acid assay (BCA, Thermo Scientific). For example, H460 cells were exposed to the indicated concentrations of MPN-2. In order to measure F2,6BP, cells were harvested, washed with PBS, lysed in NaOH/Tris acetate by heating at 80° C. and lysates neutralized to pH 7.2. F2,6BP content was measured using a coupled enzyme reaction following a modified method of Van Schaftingen et al (VAN SCHAFTINGEN E et al. “A kinetic study of pyrophosphate:fructose-6-phosphate phosphotransferase from potato tubers. Application to a microassay of fructose 2,6-bisphosphate” Eur J Biochem (1982) Vol. 129, No. 1, pp. 191-195). The F2,6BP concentration was normalized to total cellular protein measured by the bicinchoninic acid assay (BCA, Thermo Scientific). All data are expressed as the mean±SD of three experiments. Statistical significance was assessed by the two-sample t test (independent variable).
Method: In order to measure F26BP, H460 cells were exposed to increasing concentrations of the agents and were harvested, washed with PBS, lysed in NaOH/Tris acetate by heating at 80° C. and lysates neutralized to pH 7.2. F26BP content was measured using a coupled enzyme reaction following a modified method of Van Schaftingen et al. (Eur J Biochem. 1982; 129(1):191-195). The F26BP concentration was normalized to total cellular protein measured by the bicinchoninic acid assay (BCA, Thermo Scientific).

[4] = pharmacokinetic profile after IV and oral administration; format: in vivo; conditions: mice
Description: Method: The pharmacokinetic profile of FB4-32 was determined in mice dosed orally and IV with FB4-32. Nine time points (n=3 per time point) were used to determine indicated PK parameters calculated using WinNonLin v5.0. Plasma samples were extracted using acetonitrile and analyzed by LC/MS-MS using a PhenomexSynergi Polar-RP 4 micron 50×2.0 mm column eluted with a biphasic mobile phase (0.5% formic acid in acetonitrile and water).

human recombinant PFKFB4 = human recombinant PFKFB4 (Homo sapiens, UniProt Q16877); test: ADP-Glo kinase assay; format: biochemical
human recombinant PFKFB4, sequence (Q16877 whole entry): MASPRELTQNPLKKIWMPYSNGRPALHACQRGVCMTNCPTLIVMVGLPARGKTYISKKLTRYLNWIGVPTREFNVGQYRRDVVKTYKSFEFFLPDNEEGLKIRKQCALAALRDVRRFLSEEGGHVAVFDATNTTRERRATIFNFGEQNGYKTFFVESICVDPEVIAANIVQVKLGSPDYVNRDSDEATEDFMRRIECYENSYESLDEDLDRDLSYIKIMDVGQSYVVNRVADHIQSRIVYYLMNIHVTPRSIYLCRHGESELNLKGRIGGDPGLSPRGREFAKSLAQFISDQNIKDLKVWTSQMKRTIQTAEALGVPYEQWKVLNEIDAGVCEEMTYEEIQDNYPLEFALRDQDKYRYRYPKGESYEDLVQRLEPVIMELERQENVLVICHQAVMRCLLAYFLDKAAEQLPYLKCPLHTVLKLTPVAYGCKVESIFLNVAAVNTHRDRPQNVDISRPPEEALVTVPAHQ
Description: The fructose-6-phosphate kinase activity of human recombinant PFKFB4 in the presence of DMSO±indicated 5MPN concentrations was assayed as previously described. The activity of 5MPN against 97 kinases was examined using a commercially available active-site dependent competition binding assay core service (KINOMEscanEDGE) that quantifies the capacity of test agents to compete with an immobilized, active-site directed ligand using a DNA-tagged kinase and immobilized ligand and compound. For example, enzyme inhibition was studied using an ADP-Glo assay. The effect of MPN-2 on the activity of recombinant human PFKFB4 enzyme was examined in an ADP-Glo assay (Promega), which measures ADP formed from a kinase reaction. ADP is converted into ATP, which is converted into light by a luciferase. PFKFB4 protein was exposed to MPN-2 at indicated concentrations in the presence of ATP and fructose-6-phosphate and following manufacturer's instructions, ADP-Glo and kinase detections reagents were added. The data are shown as the decrease in luminescence caused by MPN-2 relative to DMSO.
Method: The efficacy of Formula (VIII) in inhibition of the kinase activity of the PFKFB4 enzyme was examined by exposing recombinant human PFKFB4 protein to Formula (VIII) in the ADP-Glo kinase assay (Promega) which measures ADP formed through a kinase reaction. Briefly, recombinant protein, ATP, substrate and Formula (VIII) were incubated together for the kinase reaction followed by the addition of ADP-Glo reagent, used to terminate the kinase reaction. Lastly, a kinase detection reagent was added to convert the newly formed ADP to ATP which was measured by a luciferase reaction. Data are shown in FIG. 10 as the decrease in luminescence caused by Formula (VIII) relative to DMSO.
Method: The efficacy of FB4-32 and FB4-35 in inhibition of the kinase activity of the PFKFB4 enzyme was examined by exposing recombinant human PFKFB4 protein to FB4-32 and FB4-35 in the ADP-Glo kinase assay (Promega) which measures ADP formed through a kinase reaction. Briefly, recombinant protein, ATP, substrate and FB4-32 or FB4-35 were incubated together for the kinase reaction followed by the addition of ADP-Glo reagent to terminate the kinase reaction. Last, a kinase detection reagent was added to convert the newly formed ADP to ATP which was measured by a luciferase reaction. Data are shown as the decrease in luminescence caused by FB4-32 and FB4-35 relative to DMSO.

oral bioavailability [4]	kinase activity of the PFKFB4 enzyme (luminescence relative to DMSO) (human recombinant PFKFB4)	Structure (SMILES)	proliferation (cell counts relative to DMSO) (H460 cells [1])	glycolysis (production of 3H2O relative to DMSO) (H460 cells [2])	F26BP (normalized to cellular protein) (H460 cells [3])	proliferation (H460 cells [1]; H460, Formula IV compounds, counts at 48 hours shown)
found to have oral bioavailability	inhibited	COc1cccc2c(NCCCCCCNC(=O)C(F)(F)F)ccnc12 [FB4-32, 2,2,2-Trifluoro-N-(6-((8-methoxyquinolin-4-yl)amino)hexyl)acetamide]	decreased the proliferation of H460 cells in vitro with higher potency than 5MPN	dose-dependent decrease	decrease	
	inhibited	COc1cccc2c(NCCCCCNC(=O)CBr)ccnc12 [FB4-35, 2-Bromo-N-(5-((8-methoxyquinolin-4-yl)amino)pentyl)acetamide]	decreased the proliferation of H460 cells in vitro with higher potency than 5MPN	dose-dependent decrease	decrease	
		O=[N+]([O-])OCCCCCNc1ccnc2ccccc12 [FBR1-02]				decreased proliferation
